# Laboratory results: the supplement of paper PMC10331698
# ± gives the standard deviation of the averaged measurements.
# Assays:
# Test in all cases: level (log10 ratio to DMSO vehicle control); higher = higher biomarker level / cell amount than vehicle control
# Settings in all cases: in DMSO
# [1] = compound: FC(F)(F)COC(OCC(F)(F)F)OCC(F)(F)F [tris(Trifluoroethoxy)methane]
# Description: (§1)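 BioMAP Diversity Plus panel of 12 human primary cell co-culture systems (3C, 4H, LPS, SAg, BT, BF4T, BE3C, CASM3C, HDF3CGF, KF3CT, MyoF, Mphg). Compounds were added 1 h before stimulation and left for 24 h (MyoF 48 h; BT 72 h for soluble read-outs or 6 d for IgG). Biomarkers were read by ELISA, cytotoxicity by SRB, PBMC viability and proliferation by Alamar Blue. Each well value was divided by the mean of 8 DMSO control wells on the same plate and log10 transformed; duplicate blinded samples were tested at 4 concentrations.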
# [2] = compound: FC(F)(F)C(F)(F)C(F)(F)C(F)(F)CCI [1H,1H,2H,2H-Perfluorohexyl iodide]
# Description: as §1
# [3] = compound: O=C(O)C(F)(F)C(F)(F)C(F)(F)C(F)(F)C(F)(F)C(F)(F)C(F)(F)F [Ammonium perfluorooctanoate]
# Description: as §1
# [4] = compound: Cc1ccc(S(=O)(=O)OCC(F)(F)C(F)(F)C(F)(F)C(F)(F)C(F)(F)C(F)F)cc1 [1H,1H,7H-Perfluoroheptyl 4-methylbenzenesulfonate]
# Description: as §1
# [5] = compound: C=C(C)C(=O)OCC(F)(F)C(F)(F)C(F)(F)F [2,2,3,3,4,4,4-Heptafluorobutyl methacrylate]
# Description: as §1
# [6] = compound: O=S(=O)(OCC(F)(F)F)C(F)(F)C(F)(F)C(F)(F)C(F)(F)F [2,2,2-Trifluoroethyl perfluorobutanesulfonate]
# Description: as §1
# Perfluoropinacol = compound: OC(C(F)(F)F)(C(F)(F)F)C(O)(C(F)(F)F)C(F)(F)F [Perfluoropinacol]
# Description: as §1
Test System,level (log10) ([1]; 6700 nM),level (log10) ([1]; 20000 nM),level (log10) ([1]; 60000 nM),level (log10) ([2]; 6700 nM),level (log10) ([2]; 20000 nM),level (log10) ([2]; 60000 nM),level (log10) ([3]; 6700 nM),level (log10) ([3]; 20000 nM),level (log10) ([3]; 60000 nM),level (log10) ([4]; 6700 nM),level (log10) ([4]; 20000 nM),level (log10) ([4]; 60000 nM),level (log10) ([5]; 6700 nM),level (log10) ([5]; 20000 nM),level (log10) ([5]; 60000 nM),level (log10) ([6]; 6700 nM),level (log10) ([6]; 20000 nM),level (log10) ([6]; 60000 nM),level (log10) (Perfluoropinacol; 6700 nM),level (log10) (Perfluoropinacol; 20000 nM)
LPS:CD106/VCAM-1,-0.025 ± 0.027,0.011 ± 0.013,0.002 ± 0.037,0.01,-0.0195 ± 0.005,-0.026 ± 0.016,0.001 ± 0.0042,0.0035 ± 0.015,-0.013 ± 0.0028,0.01 ± 0.0071,0.006 ± 0.0014,0.025 ± 0.011,-0.0175 ± 0.013,-0.018 ± 0.0085,-0.02 ± 0.0085,0.0055 ± 0.052,-0.0075 ± 0.015,-0.076 ± 0.013,0.0045 ± 0.013,-0.0825 ± 0.015
3C:Proliferation,-0.013 ± 0.061,-0.001 ± 0.037,0.0035 ± 0.03,-0.0115 ± 0.0064,-0.051 ± 0.064,-0.047 ± 0.023,-0.001 ± 0.034,0.015 ± 0.0042,-0.0635 ± 0.08,-0.02 ± 0.014,-0.033 ± 0.014,-0.12 ± 0.086,-0.0315 ± 0.044,-0.0325 ± 0.033,-0.049 ± 0.02,0.002 ± 0.062,-0.025 ± 0.04,-0.0475 ± 0.028,-0.151 ± 0.0028,-0.441 ± 0.086
4H:SRB,-0.0055 ± 0.0021,-0.004 ± 0.0042,-0.011 ± 0.017,0.0015 ± 0.0035,-0.0045 ± 0.026,0.0005 ± 0.0078,-0.004 ± 0.011,-0.0115 ± 0.005,-0.0245 ± 0.0078,0.0005 ± 0.026,-0.002 ± 0.011,-0.0605 ± 0.0078,-0.0025 ± 0.005,-0.005 ± 0.0042,-0.001 ± 0.0014,-0.0025 ± 0.00071,-0.0085 ± 0.011,-0.0015 ± 0.023,-0.0345 ± 0.015,-0.13 ± 0.0078
LPS:IL-1alpha,-0.019 ± 0.014,-0.015 ± 0.014,-0.0095 ± 0.035,-0.0045 ± 0.032,-0.034 ± 0.047,0.051 ± 0.044,0.019 ± 0.0042,0.0045 ± 0.00071,-0.034 ± 0.024,-0.018 ± 0.017,-0.006 ± 0.0042,-0.039 ± 0.0085,-0.04 ± 0.0057,-0.0105 ± 0.011,0.042 ± 0.0014,-0.061 ± 0.079,-0.104 ± 0.041,-0.172 ± 0.052,0.0305 ± 0.011,0.041 ± 0.0014
BT:B cell Proliferation,-0.021 ± 0.021,-0.005 ± 0.018,-0.006 ± 0.073,-0.0105 ± 0.00071,-0.0085 ± 0.016,-0.0005 ± 0.032,0.0065 ± 0.047,0.0165 ± 0.012,0.0515 ± 0.026,-0.0165 ± 0.012,0.011 ± 0.0028,-0.034 ± 0.0057,-0.0305 ± 0.076,-0.02 ± 0.086,-0.058 ± 0.011,0.019 ± 0.0042,0.0295 ± 0.019,0.024 ± 0.023,-0.0065 ± 0.0064,-0.085 ± 0.034
4H:CCL26/Eotaxin-3,0.018 ± 0.047,0.0235 ± 0.043,0.0415 ± 0.0078,-0.0145 ± 0.032,-0.06 ± 0.013,-0.1 ± 0.0042,-0.005 ± 0.0028,-0.013 ± 0.0057,-0.0385 ± 0.028,0.007 ± 0.0057,-0.0015 ± 0.013,-0.057 ± 0.052,0.005 ± 0.02,0.0045 ± 0.0078,-0.0035 ± 0.022,0.0025 ± 0.064,0.01 ± 0.054,-0.0095 ± 0.074,-0.03 ± 0.048,-0.179 ± 0.037
4H:CD62P/P-selectin,-0.0215 ± 0.064,0.011 ± 0.088,-0.0135 ± 0.053,-0.001 ± 0.011,0.023 ± 0.011,0.0135 ± 0.012,0.0195 ± 0.012,0.043 ± 0.088,0.0515 ± 0.036,0.052 ± 0.033,0.002 ± 0.035,0.149 ± 0.012,-0.002 ± 0.052,-0.008 ± 0.037,0.129 ± 0.021,-0.0365 ± 0.016,-0.034 ± 0.0085,-0.0525 ± 0.015,-0.0165 ± 0.022,-0.217 ± 0.06
